# Test results taken from patent publication US20120028976A1, “PHARMACOKINETICALLY-BASED DOSING REGIMENTS OF A THROMBIN RECEPTOR ANTAGONIST” (priority 2008, published 2012).
# Where two headings read alike, the source gives them in different places.
# Tests used:
# clinical = conditions: human, in vivo
# Text: (§1) Phase I clinical studies were designed to evaluate the pharmacokinetics of COMPOUND 1 in healthy subjects after rising single and multiple doses. The study included a randomized, evaluator-blind, placebo-controlled, rising single dose (“RSD”) study and a rising multiple dose (“RSM”) study of orally administered COMPOUND 1 in healthy subjects.
# (§2) In the single-dose study, 50 healthy males were enrolled into 6 sequential cohorts and randomized to receive in ascending dose manner placebo (n=2-3/group) or oral COMPOUND 1 (0.25, 1, 5, 10, 20 and 40 mg; n=5-6/group). In the multiple-dose study, 36 healthy subjects were enrolled into 3 sequential cohorts and randomized to receive in ascending-dose manner placebo (n=4/group) or oral COMPOUND 1(1, 3, and 5 mg OD in the morning for 28 days, n=8/group). A fourth cohort in the same study (n=12) was randomized to receive a single loading dose of COMPOUND 1, 10 mg (n=6) or 20 mg (n=6) on Day 1, followed by maintenance doses of 1 mg daily for 6 days. Measured and derived pharmacokinetic parameters were used to assess the pharmacokinetic profile. The doses were administered using appropriate combinations of the capsule formulations disclosed in Table 1.
# Variability was low to moderate.
# The RMD study also allowed evaluation of COMPOUND 1 accumulation. Mean accumulation index (R) values ranged from 4.72 to 6.37. The effective half-lives determined from R values ranged from 59.8 to 141 hrs.
# [1] = Rising single dose (RSD) study: pharmacokinetics of orally administered COMPOUND 1 in healthy subjects; format: in vivo, human; conditions: for Cmax / AUC(0-t) / Tmax: po; for time for which plasma concentrations were quantifiable: LLOQ 0.1 ng/ml
# Text: as §1, §2
# Several observations were made from the data collected in the RSD Study. […] Tmax ranged from 0.5 to 2 hrs after dosing.
# To estimate the terminal-phase half-life (t½) of COMPOUND 1, samples were collected from subjects in the 20 mg and 40 mg dose groups for up to 64 days after dosing. […] Plasma concentrations were quantifiable for up to 53 days in subjects administered 20 mg and up to 62 days in subjects administered 40 mg.
# [2] = single oral dose 40 mg, maximum individual value
# [3] = single oral dose 40 mg, minimum individual value
structure (smiles),measurement,setting,value
CCOC(=O)N[C@@H]1CC[C@@H]2[C@@H](C1)C[C@H]1C(=O)O[C@H](C)[C@H]1[C@H]2/C=C/c1ccc(-c2cccc(F)c2)cn1 [COMPOUND 1],coefficient of variability (CV) for AUC(0-24 h),clinical,14-34%
same,dose relation of exposure,clinical,increased in a dose-related manner
same,AUC(0-24 hr) Mean,clinical; 1 mg,58.5 ng·h/mL
same,Cmax Mean,clinical; 1 mg,9.78 ng/mL
same,AUC(0-24 hr) Mean,clinical; 3 mg,225 ng·h/mL
same,Cmax,"clinical; 3 mg, Cmax Mean",38.2 ng/mL
same,Tmax,"clinical; 3 mg, Tmax Median",1 h
same,AUC(0-24 hr) Mean,clinical; 5 mg,315 ng·h/mL
same,Cmax Mean,clinical; 5 mg,56.4 ng/mL
same,effective half-lives determined from R values,clinical; 5 mg,60 to 141 h
same,Tmax,"clinical; 5 mg, Tmax Median",1 h
same,half-life,"clinical; 5 mg, effective half-lives determined from R values",59.8 to 141 h
same,"Mean accumulation index (R) values, range over dose groups",clinical; 28 days,4.72-6.37
same,half-life,"clinical; Mean terminal-phase half-life (t1/2), range over dose groups",173 to 269 h
same,Tmax,"clinical; Median Tmax values, range over dose groups",1 to 1.5 h
same,Tmax,clinical; Tmax Median,1 h
same,time to maximal plasma levels,[1]; across all doses in both studies (single and multiple oral dosing),60 to 90 min
same,half-life,"[1]; male, human, plasma, oral, subjects of the 20 mg and 40 mg single dose groups, samples up to 64 days after dosing, read-out: apparent terminal-phase half-life (t1/2)",126 to 269 h
same,Cmax,"[1]; male, human, plasma, 0.25 mg, single oral dose 0.25 mg, n=6, healthy males, plasma, mean (CV %), read-out: Cmax",2.23 ng/mL
same,AUC(0-t),"[1]; male, human, plasma, 0.25 mg, single oral dose 0.25 mg, n=6, mean (CV %), read-out: AUC(0-72 hr)",33.7 ng·h/mL
same,Tmax,"[1]; male, human, plasma, 0.25 mg, single oral dose 0.25 mg, n=6, value (range), read-out: Tmax",1 h
same,AUC(0-t),"[1]; male, human, plasma, 1 mg, single oral dose 1 mg, n=6, mean (CV %), read-out: AUC(0-72 hr)",142 ng·h/mL
same,Cmax,"[1]; male, human, plasma, 1 mg, single oral dose 1 mg, n=6, mean (CV %), read-out: Cmax",9.29 ng/mL
same,Tmax,"[1]; male, human, plasma, 1 mg, single oral dose 1 mg, n=6, value (range), read-out: Tmax",1.25 h
same,AUC(0-t),"[1]; male, human, plasma, 5 mg, single oral dose 5 mg, n=6, mean (CV %), read-out: AUC(0-72 hr)",740 ng·h/mL
same,Cmax,"[1]; male, human, plasma, 5 mg, single oral dose 5 mg, n=6, mean (CV %), read-out: Cmax",51.4 ng/mL
same,Tmax,"[1]; male, human, plasma, 5 mg, single oral dose 5 mg, n=6, value (range), read-out: Tmax",0.75 h
same,AUC(0-t),"[1]; male, human, plasma, 10 mg, single oral dose 10 mg, n=6, mean (CV %), read-out: AUC(0-72 hr)",1510 ng·h/mL
same,Cmax,"[1]; male, human, plasma, 10 mg, single oral dose 10 mg, n=6, mean (CV %), read-out: Cmax",99.2 ng/mL
same,Tmax,"[1]; male, human, plasma, 10 mg, single oral dose 10 mg, n=6, value (range), read-out: Tmax",1.5 h
same,AUC(0-t),"[1]; male, human, plasma, 20 mg, single oral dose 20 mg, n=5, mean (CV %), read-out: AUC(0-72 hr)",3350 ng·h/mL
same,Cmax,"[1]; male, human, plasma, 20 mg, single oral dose 20 mg, n=5, mean (CV %), read-out: Cmax",183 ng/mL
same,Tmax,"[1]; male, human, plasma, 20 mg, single oral dose 20 mg, n=5, value (range), read-out: Tmax",1.5 h
same,Tmax,"[1]; male, human, plasma, 40 mg, loading dose 40 mg, single oral (Table 3), read-out: Tmax range",0.5 to 1.5 h
same,AUC(0-t),"[1]; male, human, plasma, 40 mg, loading dose 40 mg, single oral, range of individual values (Table 3), read-out: AUC(0-72 hr) range",4740 to 7510 ng·h/mL
same,Cmax,"[1]; male, human, plasma, 40 mg, loading dose 40 mg, single oral, range of individual values (Table 3), read-out: Cmax range",238 to 511 ng/mL
same,AUC(0-t),"[1]; male, human, plasma, 40 mg, single oral dose 40 mg, n=5, mean (CV %), read-out: AUC(0-72 hr), Mean",~6030 ng·h/mL
same,Cmax,"[1]; male, human, plasma, 40 mg, single oral dose 40 mg, n=5, mean (CV %), read-out: Cmax, Mean",~376 ng/mL
same,Tmax,"[1]; male, human, plasma, 40 mg, single oral dose 40 mg, n=5, value (range), read-out: Tmax, Mean",1.5 h
same,Tmax,"[1]; male, human, plasma, 40 mg, single oral dose 40 mg, Tmax corresponding to maximum individual Cmax, read-out: Tmax, Max",1.5 h
same,Tmax,"[1]; male, human, plasma, 40 mg, single oral dose 40 mg, Tmax corresponding to minimum individual Cmax, read-out: Tmax",0.5 h
same,Tmax,"[1]; male, human, plasma, single oral doses 0.25 to 40 mg, all dose groups, read-out: Tmax range after dosing",0.5 to 2 h
same,dose relation of exposure,"[1]; single doses up to 40 mg, FIG. 2",dose related
same,time for which plasma concentrations were quantifiable,[1]; single oral dose 20 mg,up to 53 days
same,time for which plasma concentrations were quantifiable,[1]; single oral dose 40 mg,up to 62 days
same,"AUC(0-72 hr), Max",[1]; [2],7508 ng·h/mL
same,"Cmax, Max",[1]; [2],511 ng/mL
same,"AUC(0-72 hr), Min",[1]; [3],4745 ng·h/mL
same,"Cmax, Min",[1]; [3],238 ng/mL
